Results published in patent publication US8729312B2, “Derivatives of novel peroxides, method of preparation thereof and use thereof in human medicine as well as in cosmetics for the treatment or prevention of acne” (Galderma Research & Development, priority 2009, dated 2014).
In brackets after ≈: the same amount, converted by molar mass. Several values for one entry are separate records, joined by “and”; a condition that tells them apart may be missing. Identical values can stand only once.

What was measured:
[1] = tested on: P. acnes CIPA179; assay: Minimum inhibitory concentration (MIC) on Propionibacterium acnes, dilution in liquid medium; type: cell-based; settings: strain CIPA179, anaerobic, 36° C., minimum 72 h, range 2.5 mg/L to 1280 mg/L
Source text: (§1) the aim is to evaluate the anti-bacterial activity of the peroxides by measuring the minimum inhibitory concentration (MIC). The MIC is defined as the lowest concentration of product capable of inhibiting all visible growth.
(§2) The sensitivity of the products is investigated on two strains from the Pasteur Institute collection (CIP) of Propionibacterium acnes (P. acnes): • P. acnes CIP53.117, equivalent to ATCC6919, origin: facial acne lesion (1920), source CRBIP, Pasteur Institute, Paris • P. acnes CIPA179, origin: sebaceous gland (1946), source CRBIP, Pasteur Institute, Paris Tests on the Products:
(§3) The products are dissolved at 1280 mg/L in a mixture of absolute ethanol/sterile Tween 80/sterile Wilkins Chalgren broth ([…]). The dilution ranges used are an adaptation of the method described by the CLSI for methods of dilution in liquid medium. The range consists of 10 concentrations from 2.5 mg/L to 1280 mg/L at intervals of ratio 2.
(§4) The suspension of P. acnes is prepared in Wilkins Chalgren broth and calibrated at an optical density of about 0.4 at wavelength of 525 nm. It is then diluted to 1/10 in Wilkins Chalgren broth and then put in the test cupules to obtain a final suspension of about 10^5-10^6 CFU/mL in each test cupule.
(§5) The solutions of the test products are distributed on a 96-well microplate and incubated at 36° C.±2° C. under anaerobic atmosphere for a minimum of 72 h. The first cupule for which there is no growth visible to the naked eye is regarded as the MIC.

[2] = tested on: P. acnes CIP53.117; assay: as above; type: cell-based; settings: strain CIP53.117, anaerobic, 36° C., minimum 72 h, range 2.5 mg/L to 1280 mg/L
Source text: as §1, §2, §3, §4, §5

[3] = tested on: TPA-induced ear oedema; assay: Anti-inflammatory activity after a single topical administration in TPA-induced ear oedema; type: in vivo, mouse; settings: for Inhibition vs TPA (%) / Ear oedema Mean / anti-inflammatory effect (conclusion in words): single topical application; for Inhibition vs TPA (%): T6h; for Ear oedema Mean: mouse ear thickness at T6h; for ranking compared to BPO at 5%: compound at 5%
Method: the aim is to evaluate the anti-inflammatory activity of the peroxides by measuring the thickness of mouse ear after TPA topical application. The anti-inflammatory activity is defined as a inhibition percentage of the TAP-induced ear oedema.
An oedema was induced by a single topical application of 20 μl of TPA dissolved in acetone at 0.01%.
Then a single topical application of tested compounds dissolved in TPA solution.
Ear thickness was measured at T6h.
Results are expressed in percentages based on the inhibition on the oedema induced by the TPA application.
Benzoyl peroxide (BPO) was tested 2 times as a reference peroxide.

[4] = TPA-induced ear oedema mouse model

Row | SMILES | MIC (minimum inhibitory concentration) [1] [µg/mL] | MIC (minimum inhibitory concentration) [2] [µg/mL] | ranking of Ex n°1 against Ex n°2 ([3]; both at 5%, TPA-induced ear oedema mouse model) | Inhibition vs TPA (%) ([3]; compound 1% in TPA 0.01%) | Ear oedema Mean ([3]; compound 1% in TPA 0.01%) | Inhibition vs TPA (%) ([3]; compound 2.5% in TPA 0.01%) | Ear oedema Mean ([3]; compound 2.5% in TPA 0.01%) | Inhibition vs TPA (%) ([3]; compound 5% in TPA 0.01%) | Ear oedema Mean ([3]; compound 5% in TPA 0.01%) | ranking compared to BPO at 5% [3, 4] | anti-inflammatory effect (conclusion in words) [3, 4] | MIC ([1]; Cutibacterium acnes) [µg/mL] | MIC ([2]; Cutibacterium acnes) [µg/mL]
1 | CC(=O)OCOc1ccccc1C(=O)OOC(=O)c1ccccc1OCOC(C)=O [Example 1, bis(2-acetoxymethoxy)-benzoyl peroxide] | 320 (≈ 765 µM) | 320 (≈ 765 µM) | slightly better than Ex n°2 at 5% | 45.7 | 13.80 | 74.8 | 6.40 | 81.9% | 4.60 | superior compared to BPO 5% | strong dose-dependent anti-inflammatory effect |  | 
2 | CC(=O)OCOc1ccccc1C(=O)OOC(=O)c1ccccc1 [Example 2, (2-acetoxymethoxy-benzoyl)benzoyl peroxide] |  |  |  | 19.7 | 20.40 | 42.5 | 14.60 | 71.7% | 7.20 | superior compared to BPO 5% | moderate anti-inflammatory effect | 80 (≈ 242 µM) | 160 (≈ 484 µM)
3 | O=C(OOC(=O)c1ccccc1)c1ccccc1 [BPO, Benzoyl peroxide, reference compound] |  |  |  |  |  |  |  | 21.4% and 27.8% | 17.60 and 20.80 |  |  |  | 
